The record followed here is PubChem BioAssay AID192 (DTP/NCI, 2004).

Structures are written as SMILES. “And” between values parts separate entries of the source, which are not always exact repeats. Identical values can stand only once. Inconclusive results and toxic doses are left out.

The test system of this experiment is BDF1 mice, B16 melanoma ip, median survival T/C. Nature of the experiment: NCI In Vivo Anticancer Drug Screen. Data for tumor model B16 Melanoma (intraperitoneal) in B6D2F1 (BDF1) mice. The note with it: endpoint: median survival time, higher = longer survival. The essentials: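 Read-out: survival or tumor size, given as treated/control ratio. Controls received vehicle only; animals bore transplantable tumors.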

Where [1] appears, read: dose: 25.0 mg/kg/injection, schedule: Q01DX009 (ip), vehicle: Klucel (hydroxypropylcellulose) (HPC).
The mark [2] stands for this setting: dose: 50.0 mg/kg/injection, schedule: Q01DX009 (ip), vehicle: Klucel (hydroxypropylcellulose) (HPC).
Where [3] appears, read: dose: 100.0 mg/kg/injection, schedule: Q01DX009 (ip), vehicle: Klucel (hydroxypropylcellulose) (HPC).
[4] abbreviates: dose: 6.25 mg/kg/injection, schedule: Q01DX009 (ip), vehicle: saline.
The mark [5] stands for this setting: dose: 12.5 mg/kg/injection, schedule: Q01DX009 (ip), vehicle: saline.
[6] abbreviates: dose: 50.0 mg/kg/injection, schedule: Q01DX009 (ip), vehicle: saline with Tween-80.
Setting [7] is: dose: 100.0 mg/kg/injection, schedule: Q01DX009 (ip), vehicle: saline with Tween-80.
The mark [8] stands for this setting: dose: 200.0 mg/kg/injection, schedule: Q01DX009 (ip), vehicle: saline with Tween-80.
[9] abbreviates: dose: 400.0 mg/kg/injection, schedule: Q01DX009 (ip), vehicle: saline with Tween-80.
Setting [10] is: dose: 12.5 mg/kg/injection, schedule: Q01DX009 (ip), vehicle: Klucel (hydroxypropylcellulose) (HPC).

In the case of `CC1=C(/C=C/C(C)=C/C=C/C(C)=C/C=O)C(C)(C)CCC1`, the T/C by setting is: (dose: 16.0 mg/kg/injection, schedule: Q01DX005 (ip), vehicle: DMSO) 94 % of control; (dose: 32.0 mg/kg/injection, schedule: Q01DX005 (ip), vehicle: DMSO) 88 % of control; (dose: 64.0 mg/kg/injection, schedule: Q01DX005 (ip), vehicle: DMSO) 89 % of control.

For `Cc1cc(C)c(NC(=O)Nc2ccccc2)c(C)c1`, the T/C reads like this: under setting [1], 94 % of control; under setting [2], 94 % of control; under setting [3], 108 % of control.

For `CC(=O)OC(CC(=O)CC(O)(C(F)(F)F)C(F)(F)F)(C(F)(F)F)C(F)(F)F`, the T/C runs as follows: (dose: 3.13 mg/kg/injection, schedule: Q01DX009 (ip), vehicle: saline) 102 % of control; (dose: 3.13 mg/kg/injection, schedule: Q04DX003 (ip), vehicle: saline) 97 % of control; under setting [4], 107 % of control; (dose: 6.25 mg/kg/injection, schedule: Q04DX003 (ip), vehicle: saline) 100 % of control; under setting [5], 92 % of control; (dose: 12.5 mg/kg/injection, schedule: Q04DX003 (ip), vehicle: saline) 100 % of control.

Turning to `COc1ccc(C2=C(c3ccccc3)C(c3ccccc3)=C(c3ccc(OC)cc3)C2=O)cc1`, the T/C was 94 % of control under setting [6], 95 % of control under setting [7], 95 % of control under setting [8] and 94 % of control under setting [9].

`CCCCCCCCC(=O)CCCCCC`: the T/C was 100 % of control under setting [3]; 96 % of control (dose: 200.0 mg/kg/injection, schedule: Q01DX009 (ip), vehicle: Klucel (hydroxypropylcellulose) (HPC)); 104 % of control (dose: 400.0 mg/kg/injection, schedule: Q01DX009 (ip), vehicle: Klucel (hydroxypropylcellulose) (HPC)).

Take `CCNCCNc1ccc(NCCNCC)c2c1C(=O)c1ccccc1C2=O`: the T/C (dose: 8.0 mg/kg/injection, schedule: Q01DX009 (ip), vehicle: acid diluted with saline) is 157 % of control and the T/C (dose: 16.0 mg/kg/injection, schedule: Q01DX009 (ip), vehicle: acid diluted with saline) is 158 % of control.

As to `CCCCCCC/C=C/C(=O)OC1C(OC2C(OC(CCCCCCC)CC(=O)OC(CCCCCCC)CC(=O)O)OC(C)C(O)C2O)OC(C)C(O)C1O` (configuration not stated), the T/C by setting is: under setting [10], 90 % of control; under setting [1], 104 % of control; under setting [2], 92 % of control.

For the compound `NC1=NC(=O)NC1(c1ccccc1)c1ccccc1`, the T/C under setting [6] is 98 % of control, the T/C under setting [7] is 109 % of control, the T/C under setting [8] is 97 % of control and the T/C under setting [9] was 93 % of control.

Take `C[n+]1ccc(Nc2ccc(NC(=O)c3ccc(Nc4cc[n+](C)c5ccc(N)cc45)cc3N)cc2)cc1`: the T/C is, setting by setting: (dose: 1.0 mg/kg/injection, schedule: Q01DX009 (ip), vehicle: saline with Tween-80) 98 % of control; (dose: 1.0 mg/kg/injection, schedule: Q02DX009 (ip), vehicle: Klucel (hydroxypropylcellulose) (HPC)) 103 % of control and 105 % of control; (dose: 2.0 mg/kg/injection, schedule: Q01DX009 (ip), vehicle: saline with Tween-80) 105 % of control; (dose: 2.0 mg/kg/injection, schedule: Q02DX009 (ip), vehicle: Klucel (hydroxypropylcellulose) (HPC)) 109 % of control and 113 % of control; (dose: 4.0 mg/kg/injection, schedule: Q01DX009 (ip), vehicle: saline with Tween-80) 109 % of control; (dose: 4.0 mg/kg/injection, schedule: Q02DX009 (ip), vehicle: Klucel (hydroxypropylcellulose) (HPC)) 101 % of control and 106 % of control. Also, the T/C (dose: 6.25 mg/kg/injection, schedule: Q01DX009 (ip), vehicle: Klucel (hydroxypropylcellulose) (HPC)) was 109 % of control; the T/C under setting [4] was 104 % of control; the T/C (dose: 8.0 mg/kg/injection, schedule: Q01DX009 (ip), vehicle: saline with Tween-80) is 106 % of control; the T/C (dose: 8.0 mg/kg/injection, schedule: Q02DX009 (ip), vehicle: Klucel (hydroxypropylcellulose) (HPC)) is 108 % of control and 110 % of control; the T/C under setting [10] was 105 % of control; the T/C under setting [5] was 102 % of control. In addition, the T/C by setting is: (dose: 16.0 mg/kg/injection, schedule: Q01DX009 (ip), vehicle: saline with Tween-80) 106 % of control; (dose: 16.0 mg/kg/injection, schedule: Q02DX009 (ip), vehicle: Klucel (hydroxypropylcellulose) (HPC)) 109 % of control and 113 % of control; under setting [1], 89 % of control; (dose: 32.0 mg/kg/injection, schedule: Q02DX009 (ip), vehicle: Klucel (hydroxypropylcellulose) (HPC)) 92 % of control and 97 % of control.

Take `O=NN(CCCl)C(=O)NCCO`: the T/C (dose: 3.12 mg/kg/injection, schedule: Q01DX009 (ip), vehicle: water) is 176 % of control.

Turning to `CCN(CCCCOC(=O)c1ccc(OC)c(OC)c1)C(C)Cc1ccc(OC)cc1` (configuration not stated), the T/C (dose: 1.32 mg/kg/injection, schedule: Q01DX009 (ip), vehicle: saline) was 93 % of control; the T/C (dose: 2.65 mg/kg/injection, schedule: Q01DX009 (ip), vehicle: saline) was 98 % of control; the T/C (dose: 4.68 mg/kg/injection, schedule: Q04DX003 (ip), vehicle: saline) was 116 % of control; the T/C (dose: 5.31 mg/kg/injection, schedule: Q01DX009 (ip), vehicle: saline) was 105 % of control and 107 % of control; the T/C (dose: 9.37 mg/kg/injection, schedule: Q04DX003 (ip), vehicle: saline) was 111 % of control; the T/C (dose: 10.6 mg/kg/injection, schedule: Q01DX009 (ip), vehicle: saline) was 88 % of control. The T/C was 88 % of control (dose: 10.62 mg/kg/injection, schedule: Q01DX009 (ip), vehicle: saline); 119 % of control (dose: 18.75 mg/kg/injection, schedule: Q04DX003 (ip), vehicle: saline); 90 % of control (dose: 21.2 mg/kg/injection, schedule: Q01DX009 (ip), vehicle: saline); 91 % of control and 109 % of control (dose: 21.25 mg/kg/injection, schedule: Q01DX009 (ip), vehicle: saline); 113 % of control (dose: 37.5 mg/kg/injection, schedule: Q04DX003 (ip), vehicle: saline); 95 % of control and 101 % of control (dose: 42.5 mg/kg/injection, schedule: Q01DX009 (ip), vehicle: saline). For the same compound, the T/C (dose: 75.0 mg/kg/injection, schedule: Q04DX003 (ip), vehicle: saline) is 119 % of control; the T/C (dose: 85.0 mg/kg/injection, schedule: Q01DX009 (ip), vehicle: saline) was 87 % of control; the T/C (dose: 110.0 mg/kg/injection, schedule: Q04DX003 (ip), vehicle: saline) was 112 % of control.

As for `Cc1ccc2c(C)c3c(ccc4ccccc43)c[n+]2c1`, the T/C (dose: 1.25 mg/kg/injection, schedule: Q01DX009 (ip), vehicle: saline) was 100 % of control; the T/C (dose: 2.5 mg/kg/injection, schedule: Q01DX009 (ip), vehicle: saline with Tween-80) was 95 % of control; the T/C (dose: 2.5 mg/kg/injection, schedule: Q01DX009 (ip), vehicle: saline) is 100 % of control; the T/C (dose: 5.0 mg/kg/injection, schedule: Q01DX009 (ip), vehicle: saline with Tween-80) is 95 % of control; the T/C (dose: 5.0 mg/kg/injection, schedule: Q01DX009 (ip), vehicle: saline) was 100 % of control; the T/C (dose: 10.0 mg/kg/injection, schedule: Q01DX009 (ip), vehicle: saline) is 105 % of control.

With `Cc1c2ccccc2cc2cc[n+]3ccccc3c12`, the T/C reads like this: (dose: 3.75 mg/kg/injection, schedule: Q01DX009 (ip), vehicle: Klucel (hydroxypropylcellulose) (HPC)) 98 % of control; (dose: 7.5 mg/kg/injection, schedule: Q01DX009 (ip), vehicle: Klucel (hydroxypropylcellulose) (HPC)) 98 % of control; (dose: 15.0 mg/kg/injection, schedule: Q01DX009 (ip), vehicle: Klucel (hydroxypropylcellulose) (HPC)) 102 % of control.

For `Cc1cc(O)ccc1[N+](=O)[O-]`, the T/C was 119 % of control (dose: 25.0 mg/kg/injection, schedule: Q01DX009 (ip), vehicle: saline); 123 % of control (dose: 50.0 mg/kg/injection, schedule: Q01DX009 (ip), vehicle: saline); 104 % of control (dose: 100.0 mg/kg/injection, schedule: Q01DX009 (ip), vehicle: saline).
